For one molecule, Activity and IC50 results are on record in ChEMBL document CHEMBL6103618, “Discovery of Novel Oxazolo[4,3-f]purine Derivatives as Antitumor Agents through PPIA Interaction” (J Med Chem, 2025).

The structures appear in SMILES notation. pIC50: −log10 of the molar value. The source made the active and inactive calls. No cut-off for these calls is given here.

In test [1] the test system is HCT-116. As to the kind of experiment: Induction of cell cycle arrest in human HCT-116 cells assessed as decrease in cyclin A2 level incubated for 48 hrs by Western blot analysis. The following applies: dose 0.3-1.2 µM. Type of test: functional, cell-based.
In test [2] the target is T1, Peptidyl-prolyl cis-trans isomerase A (Homo sapiens, UniProt P62937). Nature of the test: Binding affinity to PPIA (unknown origin) at 2 uM preincubated for 30 mins followed by Proteinase K addition measured after 10 mins by LiP-SMap analysis.
T1 sequence (P62937 whole entry, looked up): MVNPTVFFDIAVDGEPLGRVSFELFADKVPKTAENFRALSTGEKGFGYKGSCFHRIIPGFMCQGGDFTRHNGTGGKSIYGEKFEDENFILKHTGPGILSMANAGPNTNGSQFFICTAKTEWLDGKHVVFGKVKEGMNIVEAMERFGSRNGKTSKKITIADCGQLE
The target of test [3] is T1, Peptidyl-prolyl cis-trans isomerase A. Nature of the test: Binding affinity to PPIA in human HCT-116 cells assessed as protein stability incubated for 30 mins followed by pronase addition measured after 30 mins by DARTS assay. Type of test: cell-based. The following applies: dose <= 6.0 µM, time 60.0 min.
Test [4] has as its system HCT-116. As to the kind of experiment: Effect on TK1 expression in human HCT-116 cells upto 6 uM incubated for 30 mins followed by pronase addition measured after 30 mins by DARTS assay. In kind it is functional, cell-based.
In test [5] the test system is HCT-116. Nature of the test: Induction of apoptosis in human HCT-116 cells assessed as decrease in p-p38 level by Western blot analysis. Type of test: functional, cell-based. The following applies: dose 0.3-1.2 µM.
In test [6] the test system is HCT-116. Nature of the test: Cytotoxicity against human HCT-116 cells harboring siPPIA-3 assessed as inhibition of cell viability incubated for 48 hrs by CCK8 assay. Type of test: functional, cell-based. To be noted: HCT-116, 48 h. In general terms: Tetrazolium assays rely on reduction of a dye to a coloured formazan, in cell work by metabolically active cells.
The test system of test [7] is HCT-116. Nature of the test: Anti-proliferative activity against human HCT-116 cells harboring siNC assessed as decrease in p-ERK1/2 level at 1.2 uM by Western blot analysis. In kind it is functional, cell-based. In general terms: Immunoblotting shows a protein as a band on a membrane.
Test [8] concerns HCT-116. Nature of the test: Induction of apoptosis in human HCT-116 cells harboring siNC assessed as necrotic cells at 1.2 uM by Annexin V-FITC/PI staining based flow cytometry (reference value: 0.21 %). Type of test: functional. A general note: In flow cytometry, cells or beads pass a laser one at a time.

As for `C=C(C(=O)OC)N1c2nc(Cl)nc(Cl)c2N2C(c3ccccc3F)OC(C(=O)OCC)(C(=O)OCC)C12` (racemic), the Activity entry in test [1] is “Dose-dependent-effect”; in test [3], “Dose-dependent-effect”; in test [4], “No effect”; in test [5], “Dose-dependent-effect”; in test [8], 0.57%. Also, the result in test [2] and in test [7] was Active. Further, the pIC50 (as a rule, the IC50 on a negative log10 scale, so that one unit is a factor of ten) in test [6] is 5.71.
